Laboratory results: ChEMBL document CHEMBL1201862, “PubChem BioAssay data set” (2004)
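Test compounds were applied to cells in 96-well plates for 48 hours at 5 doses. GI50 = concentration required for 50% inhibition of growth.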 Calls of active or inactive are those of the source. No stated cut-off is given here; in the data, active = GI50 up to about 1.1 µM and inactive = higher.

Columns and labels:
Assay in all cases: NCI-60 cell line screen, 48 h
SF-268 = test system: SF-268
MDA-MB-435 = test system: MDA-MB-435
UO-31 = test system: UO-31
OVCAR-5 = test system: OVCAR-5
HOP-62 = test system: HOP-62
OVCAR-3 = test system: OVCAR-3
OVCAR-4 = test system: OVCAR-4
MDA-MB-231 = test system: MDA-MB-231
SNB-19 = test system: SNB-19
RPMI-8226 = test system: RPMI-8226
SF-295 = test system: SF-295
ACHN = test system: ACHN
LOX IMVI = test system: LOX IMVI
NCI-H460 = test system: NCI-H460
HCT-116 = test system: HCT-116
K562 = test system: K562
SK-MEL-5 = test system: SK-MEL-5
HCC 2998 = test system: HCC 2998
T47D = test system: T47D

Measured: GI50

CCN1C(=O)/C(=C/Nc2ccccc2)S/C1=N/Nc1nc(-c2ccc(O)c(O)c2)cs1
inactive: SF-268 23.4 µM | MDA-MB-435 1.71 µM | UO-31 8.02 µM | OVCAR-5 > 100 µM | HOP-62 6.22 µM | OVCAR-3 5.69 µM | OVCAR-4 40.8 µM | MDA-MB-231 6.65 µM | SNB-19 4.66 µM | RPMI-8226 12.3 µM | SF-295 4.46 µM | ACHN 15.3 µM | LOX IMVI 6.08 µM | NCI-H460 35.2 µM | HCT-116 8.63 µM | K562 3.4 µM | SK-MEL-5 3.96 µM

COC(=O)C1=C(C(=O)OC)C2(OC(C)=O)c3ccccc3-c3ccccc3C12 (centres undefined)
inactive: SF-268 7.62 µM | UO-31 4.68 µM | OVCAR-5 14.2 µM | HOP-62 20 µM | OVCAR-3 5.53 µM | OVCAR-4 2.47 µM | SNB-19 > 40.7 µM | RPMI-8226 2.62 µM | SF-295 17.9 µM | HCC 2998 16.7 µM | ACHN 2.54 µM | LOX IMVI 5.09 µM | NCI-H460 17 µM | HCT-116 3.66 µM | K562 1.83 µM | SK-MEL-5 14.1 µM

CCOC(=O)C1N(S(=O)(=O)c2ccc(C)cc2)CCC12C(c1ccc(OC)c(OC)c1)=Nc1ccccc12 (centres undefined)
inactive: SF-268 47.8 µM | UO-31 > 100 µM | OVCAR-5 > 100 µM | HOP-62 > 100 µM | OVCAR-3 > 100 µM | OVCAR-4 > 100 µM | SNB-19 > 100 µM | RPMI-8226 > 100 µM | SF-295 > 100 µM | HCC 2998 > 100 µM | ACHN > 100 µM | LOX IMVI > 100 µM | NCI-H460 > 100 µM | HCT-116 > 100 µM | K562 > 100 µM | SK-MEL-5 > 100 µM

Cc1cn(C2CC(OP(=O)(O)OCC3OC(n4c[n+]([BH2-]C#N)c5c(=O)[nH]c(N)nc54)CC3O)C(CO)O2)c(=O)[nH]c1=O (centres undefined)
inactive: SF-268 > 100 µM | T47D > 100 µM | UO-31 > 100 µM | OVCAR-5 > 100 µM | HOP-62 > 100 µM | OVCAR-3 > 100 µM | OVCAR-4 > 100 µM | MDA-MB-231 > 100 µM | SNB-19 > 100 µM | RPMI-8226 > 100 µM | SF-295 > 100 µM | HCC 2998 > 100 µM | ACHN > 100 µM | NCI-H460 > 100 µM | HCT-116 > 100 µM | K562 > 100 µM | SK-MEL-5 > 100 µM

COc1ccc2c(c1)CC1c3c(ccc(OC)c3O)CC2N1C (centres undefined)
inactive: SF-268 54.2 µM | UO-31 30.8 µM | OVCAR-5 54.5 µM | HOP-62 > 92.3 µM | OVCAR-3 29.2 µM | OVCAR-4 29.4 µM | SNB-19 47.6 µM | RPMI-8226 20.9 µM | SF-295 22.8 µM | HCC 2998 16.8 µM | ACHN 51.5 µM | LOX IMVI 23.9 µM | NCI-H460 19.3 µM | HCT-116 19.6 µM | K562 20.4 µM | SK-MEL-5 18.1 µM

CN(CC#N)C1CCCC[C@H]1O (some centres undefined)
inactive: SF-268 > 100 µM | UO-31 > 100 µM | OVCAR-5 > 100 µM | HOP-62 > 100 µM | OVCAR-3 > 100 µM | OVCAR-4 > 100 µM | SNB-19 > 100 µM | RPMI-8226 > 100 µM | SF-295 > 100 µM | HCC 2998 > 100 µM | ACHN > 100 µM | LOX IMVI > 100 µM | NCI-H460 > 100 µM | HCT-116 > 100 µM | K562 > 100 µM | SK-MEL-5 > 100 µM

Cc1cc(C)nc(NS(=O)(=O)c2ccc(NC(=O)c3ccc(Cl)c4c(Nc5ccc(S(=O)(=O)N=C(N)N)cc5)c5ccccc5nc34)cc2)n1
inactive: SF-268 35.1 µM | UO-31 > 100 µM | OVCAR-5 > 100 µM | HOP-62 > 100 µM | OVCAR-3 44.3 µM | OVCAR-4 59.2 µM | SNB-19 > 100 µM | RPMI-8226 28.1 µM | SF-295 > 100 µM | HCC 2998 29.1 µM | ACHN > 100 µM | LOX IMVI 17.8 µM | NCI-H460 > 10 µM | HCT-116 24 µM | K562 19 µM | SK-MEL-5 > 100 µM

CN(C)c1ccc(/C=c2\sc3nnc(Cc4ccccc4)n3c2=O)cc1
inactive: SF-268 28.3 µM | UO-31 > 100 µM | OVCAR-5 > 10 µM | HOP-62 > 10 µM | OVCAR-3 > 10 µM | OVCAR-4 > 10 µM | SNB-19 > 10 µM | RPMI-8226 > 10 µM | SF-295 > 10 µM | HCC 2998 > 100 µM | ACHN 75.3 µM | LOX IMVI > 10 µM | NCI-H460 > 10 µM | HCT-116 17.1 µM | K562 > 10 µM | SK-MEL-5 > 10 µM

CC(=O)N/C(=C\c1cccc([N+](=O)[O-])c1)c1nc2ccc3c(c2[nH]1)C(=O)c1ccccc1C3=O
inactive: SF-268 13.6 µM | UO-31 3.62 µM | OVCAR-5 > 93.3 µM | HOP-62 78 µM | OVCAR-3 > 100 µM | OVCAR-4 > 65.9 µM | SNB-19 > 100 µM | RPMI-8226 5.04 µM | SF-295 > 100 µM | HCC 2998 > 100 µM | ACHN 4.37 µM | LOX IMVI 13.3 µM | NCI-H460 27.2 µM | HCT-116 17.9 µM | K562 23.9 µM | SK-MEL-5 > 79.6 µM

CC1(c2cccc3c2C2(O)C=CC4(CCC32)OCCO4)OCCO1 (centres undefined)
inactive: SF-268 > 100 µM | UO-31 > 100 µM | OVCAR-5 > 100 µM | HOP-62 > 100 µM | OVCAR-3 > 100 µM | OVCAR-4 > 100 µM | SNB-19 > 100 µM | RPMI-8226 > 100 µM | SF-295 > 100 µM | HCC 2998 > 100 µM | ACHN > 100 µM | LOX IMVI > 100 µM | NCI-H460 > 100 µM | HCT-116 > 100 µM | K562 > 100 µM | SK-MEL-5 > 100 µM

CC1=C(CO)C(=O)OC(C(C)C2CCC3C4CC5OC56C(O)C(N5CC5)=CC(=O)C6(C)C4CCC23C)C1 (centres undefined)
inactive: SF-268 3.81 µM | UO-31 12.9 µM | OVCAR-5 17.4 µM | HOP-62 18.5 µM | OVCAR-3 3.43 µM | OVCAR-4 7.19 µM | SNB-19 2.04 µM | RPMI-8226 3.35 µM | SF-295 16.5 µM | HCC 2998 2.93 µM | ACHN 5.74 µM | LOX IMVI 14 µM | NCI-H460 9.44 µM | HCT-116 3.02 µM | K562 3.59 µM | SK-MEL-5 12.8 µM

CC(C)N(C(=O)c1cccc(C(=O)N(C(C)C)C(C)C)c1)C(C)C
inactive: SF-268 > 100 µM | UO-31 > 100 µM | OVCAR-5 > 100 µM | HOP-62 > 100 µM | OVCAR-3 > 100 µM | OVCAR-4 > 100 µM | SNB-19 > 100 µM | RPMI-8226 24.9 µM | SF-295 > 100 µM | HCC 2998 > 100 µM | ACHN > 100 µM | LOX IMVI > 100 µM | NCI-H460 > 100 µM | HCT-116 > 100 µM | K562 > 100 µM | SK-MEL-5 > 100 µM
